{
  "source": "patent US9458137B2",
  "about": "“Substituted indol-5-ol derivatives and their therapeutical applications” (NantBioScience, Inc., priority 2012, dated 2016)",
  "assay_in_all_cases": "Kinase panel activity",
  "format_in_all_cases": "biochemical",
  "conditions_in_all_cases": "0.1 μM, ATP Km",
  "key": {"CLK3(h)": {"biological_target": "CLK3(h) (Homo sapiens, UniProt P49761)", "experimental": "(§1) The effect of NTW-3475 on kinase activity was tested for a wide range of kinases and is shown in Table 2: Summary Sheet, Activity % ATP Concentration: Km"}, "EphA5(h)": {"biological_target": "T1, EphA5(h) (Homo sapiens, UniProt P54756)", "T1 construct": "purchased Millipore (KinaseProfiler service)", "T1 sequence (P54756 25-1037)": "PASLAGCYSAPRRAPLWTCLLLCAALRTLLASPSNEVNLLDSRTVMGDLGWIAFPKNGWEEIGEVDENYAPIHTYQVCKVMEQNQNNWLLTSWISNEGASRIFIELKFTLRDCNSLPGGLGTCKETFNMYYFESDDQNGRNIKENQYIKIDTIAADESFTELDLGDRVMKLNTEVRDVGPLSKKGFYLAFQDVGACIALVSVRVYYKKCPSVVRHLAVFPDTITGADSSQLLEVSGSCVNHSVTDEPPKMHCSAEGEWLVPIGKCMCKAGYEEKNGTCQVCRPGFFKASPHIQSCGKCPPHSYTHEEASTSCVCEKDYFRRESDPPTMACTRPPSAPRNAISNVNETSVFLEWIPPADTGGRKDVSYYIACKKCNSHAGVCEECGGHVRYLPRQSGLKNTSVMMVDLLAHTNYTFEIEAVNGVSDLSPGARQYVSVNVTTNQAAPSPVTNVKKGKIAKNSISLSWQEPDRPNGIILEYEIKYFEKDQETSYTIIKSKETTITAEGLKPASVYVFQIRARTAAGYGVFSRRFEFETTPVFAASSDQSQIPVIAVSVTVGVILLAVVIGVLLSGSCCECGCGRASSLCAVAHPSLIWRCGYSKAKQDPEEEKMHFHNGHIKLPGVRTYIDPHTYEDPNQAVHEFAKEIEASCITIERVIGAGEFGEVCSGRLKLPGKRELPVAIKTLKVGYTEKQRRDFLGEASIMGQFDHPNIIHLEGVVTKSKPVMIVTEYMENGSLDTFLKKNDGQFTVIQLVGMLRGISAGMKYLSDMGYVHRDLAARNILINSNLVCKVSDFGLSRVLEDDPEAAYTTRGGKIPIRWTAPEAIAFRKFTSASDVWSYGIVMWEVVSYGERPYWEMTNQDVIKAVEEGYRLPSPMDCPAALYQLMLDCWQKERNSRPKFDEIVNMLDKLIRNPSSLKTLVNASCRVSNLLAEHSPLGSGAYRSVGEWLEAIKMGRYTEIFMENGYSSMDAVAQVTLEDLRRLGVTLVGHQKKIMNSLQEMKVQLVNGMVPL", "experimental": "as §1"}, "cKit(V560G)(h)": {"biological_target": "cKit(V560G)(h) (Homo sapiens, UniProt P10721, V560G)", "experimental": "as §1"}, "Pim-1(h)": {"biological_target": "Pim-1(h) (Homo sapiens, UniProt P11309)", "sequence (P11309 whole entry)": "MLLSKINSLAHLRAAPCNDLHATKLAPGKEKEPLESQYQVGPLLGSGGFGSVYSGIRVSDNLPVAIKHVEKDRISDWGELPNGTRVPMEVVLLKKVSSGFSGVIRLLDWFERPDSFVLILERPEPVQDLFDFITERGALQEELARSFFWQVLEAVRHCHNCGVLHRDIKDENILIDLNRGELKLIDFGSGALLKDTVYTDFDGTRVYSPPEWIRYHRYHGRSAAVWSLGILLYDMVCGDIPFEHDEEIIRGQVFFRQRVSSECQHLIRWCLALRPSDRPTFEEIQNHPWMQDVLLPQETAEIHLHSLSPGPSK", "experimental": "as §1"}, "PKCζ(h)": {"biological_target": "PKCζ(h) (Homo sapiens, UniProt Q05513)", "experimental": "as §1"}, "Ret(h)": {"biological_target": "T2, Ret(h) (Homo sapiens, UniProt P07949)", "T2 construct": "purchased Millipore (KinaseProfiler service)", "experimental": "as §1"}, "CK1γ1(h)": {"biological_target": "CK1γ1(h) (Homo sapiens, UniProt Q9HCP0)", "experimental": "as §1"}, "CK1γ2(h)": {"biological_target": "CK1γ2(h) (Homo sapiens, UniProt P78368)", "sequence (P78368 whole entry)": "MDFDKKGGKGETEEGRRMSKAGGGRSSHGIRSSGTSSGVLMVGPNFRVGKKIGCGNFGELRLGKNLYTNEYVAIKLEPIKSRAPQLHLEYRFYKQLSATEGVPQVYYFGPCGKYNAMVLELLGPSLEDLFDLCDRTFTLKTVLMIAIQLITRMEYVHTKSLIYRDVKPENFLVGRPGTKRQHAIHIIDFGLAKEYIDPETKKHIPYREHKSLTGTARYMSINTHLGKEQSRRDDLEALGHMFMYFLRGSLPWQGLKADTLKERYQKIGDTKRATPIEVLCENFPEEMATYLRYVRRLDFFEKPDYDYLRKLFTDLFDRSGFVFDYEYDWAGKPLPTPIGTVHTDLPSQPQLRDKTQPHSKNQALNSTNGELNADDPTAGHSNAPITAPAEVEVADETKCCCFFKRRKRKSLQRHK", "experimental": "as §1"}, "PDK1(h)": {"biological_target": "PDK1(h) (Homo sapiens, UniProt O15530)", "experimental": "as §1"}, "Tie2(Y897S)(h)": {"biological_target": "T3, Tie2(Y897S)(h) (Homo sapiens, UniProt Q02763, Y897S)", "T3 construct": "purchased Millipore (KinaseProfiler service)", "experimental": "as §1"}, "SGK2(h)": {"biological_target": "T4, SGK2(h) (Homo sapiens, UniProt Q9HBY8)", "T4 construct": "purchased Millipore (KinaseProfiler service)", "experimental": "as §1"}, "cKit(D816H)(h)": {"biological_target": "cKit(D816H)(h) (Homo sapiens, UniProt P10721, D816H)", "experimental": "as §1"}, "Ret(V804M)(h)": {"biological_target": "T5, Ret(V804M)(h) (Homo sapiens, UniProt P07949, V804M)", "T5 construct": "purchased Millipore (KinaseProfiler service)", "experimental": "as §1"}, "TAO1(h)": {"biological_target": "T6, TAO1(h) (Homo sapiens, UniProt Q7L7X3)", "T6 construct": "purchased Millipore (KinaseProfiler service)", "experimental": "as §1"}, "MSSK1(h)": {"biological_target": "T7, MSSK1(h) (Homo sapiens, UniProt Q9UPE1)", "T7 construct": "purchased Millipore (KinaseProfiler service)", "experimental": "as §1"}, "PKD2(h)": {"biological_target": "PKD2(h) (Homo sapiens, UniProt Q9BZL6)", "experimental": "as §1"}, "Ros(h)": {"biological_target": "T8, Ros(h) (Homo sapiens, UniProt P08922)", "T8 construct": "purchased Millipore (KinaseProfiler service)", "experimental": "as §1"}, "ROCK-II(r)": {"biological_target": "T9, ROCK-II(r) (Rattus norvegicus, UniProt Q62868)", "T9 construct": "purchased Millipore (KinaseProfiler service)", "experimental": "as §1"}, "SRPK1(h)": {"biological_target": "T10, SRPK1(h) (Homo sapiens, UniProt Q96SB4)", "T10 construct": "purchased Millipore (KinaseProfiler service)", "experimental": "as §1"}, "Ab1(M351T)(h)": {"biological_target": "Ab1(M351T)(h) (Homo sapiens, UniProt P00519, M351T)", "experimental": "as §1"}, "DDR2(h)": {"biological_target": "DDR2(h) (Homo sapiens, UniProt Q16832)", "experimental": "as §1"}, "JAK2(h)": {"biological_target": "JAK2(h) (Homo sapiens, UniProt O60674)", "sequence (O60674 whole entry)": "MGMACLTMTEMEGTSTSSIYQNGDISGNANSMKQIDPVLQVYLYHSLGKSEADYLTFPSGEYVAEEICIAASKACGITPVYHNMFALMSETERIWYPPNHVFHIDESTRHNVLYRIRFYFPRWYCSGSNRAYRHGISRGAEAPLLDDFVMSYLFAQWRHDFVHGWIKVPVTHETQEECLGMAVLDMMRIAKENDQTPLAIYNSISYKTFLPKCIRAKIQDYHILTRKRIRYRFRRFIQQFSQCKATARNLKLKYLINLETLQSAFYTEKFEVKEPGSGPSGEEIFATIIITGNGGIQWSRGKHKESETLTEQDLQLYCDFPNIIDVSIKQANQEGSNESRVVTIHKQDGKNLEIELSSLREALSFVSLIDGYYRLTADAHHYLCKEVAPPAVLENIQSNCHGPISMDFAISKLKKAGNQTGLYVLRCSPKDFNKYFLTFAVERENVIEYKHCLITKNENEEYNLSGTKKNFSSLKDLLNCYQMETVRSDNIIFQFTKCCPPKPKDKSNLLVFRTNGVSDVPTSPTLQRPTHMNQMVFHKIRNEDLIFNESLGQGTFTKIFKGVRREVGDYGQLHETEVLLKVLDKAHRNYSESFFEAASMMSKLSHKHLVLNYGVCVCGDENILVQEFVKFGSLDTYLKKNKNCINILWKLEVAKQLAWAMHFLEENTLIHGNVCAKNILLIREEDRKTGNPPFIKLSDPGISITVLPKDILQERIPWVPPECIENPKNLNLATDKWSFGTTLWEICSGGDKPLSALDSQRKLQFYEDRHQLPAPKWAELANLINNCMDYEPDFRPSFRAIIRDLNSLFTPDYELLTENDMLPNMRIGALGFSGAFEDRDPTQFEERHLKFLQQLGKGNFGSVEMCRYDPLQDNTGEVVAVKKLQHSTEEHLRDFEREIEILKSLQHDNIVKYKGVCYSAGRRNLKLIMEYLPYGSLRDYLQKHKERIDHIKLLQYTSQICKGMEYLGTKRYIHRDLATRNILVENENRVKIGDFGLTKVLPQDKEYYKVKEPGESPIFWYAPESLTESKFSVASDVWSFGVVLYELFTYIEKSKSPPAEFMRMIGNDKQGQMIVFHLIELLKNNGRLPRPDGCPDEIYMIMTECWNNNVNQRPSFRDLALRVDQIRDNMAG", "experimental": "as §1"}, "CDK7/cyclinH/MAT1(h)": {"biological_target": "CDK7/cyclinH/MAT1(h) (Homo sapiens, UniProt P50613)", "experimental": "as §1"}, "PKG1α(h)": {"biological_target": "PKG1α(h) (Homo sapiens, UniProt Q13976)", "experimental": "as §1"}, "SGK(h)": {"biological_target": "T11, SGK(h) (Homo sapiens, UniProt O00141)", "T11 construct": "purchased Millipore (KinaseProfiler service)", "experimental": "as §1"}, "MuSK(h)": {"biological_target": "MuSK(h) (Homo sapiens, UniProt O15146)", "experimental": "as §1"}, "EGFR(L858R)(h)": {"biological_target": "T12, EGFR(L858R)(h) (Homo sapiens, UniProt P00533, L858R)", "T12 construct": "purchased Millipore (KinaseProfiler service)", "experimental": "as §1"}, "ARK5(h)": {"biological_target": "ARK5(h) (Homo sapiens, UniProt O60285)", "experimental": "as §1"}, "EphA3(h)": {"biological_target": "T13, EphA3(h) (Homo sapiens, UniProt P29320)", "T13 construct": "purchased Millipore (KinaseProfiler service)", "experimental": "as §1"}, "Lyn(m)": {"biological_target": "Lyn(m) (Mus musculus, UniProt P25911)", "experimental": "as §1"}, "PhKγ2(h)": {"biological_target": "PhKγ2(h) (Homo sapiens, UniProt P15735)", "sequence (P15735 whole entry)": "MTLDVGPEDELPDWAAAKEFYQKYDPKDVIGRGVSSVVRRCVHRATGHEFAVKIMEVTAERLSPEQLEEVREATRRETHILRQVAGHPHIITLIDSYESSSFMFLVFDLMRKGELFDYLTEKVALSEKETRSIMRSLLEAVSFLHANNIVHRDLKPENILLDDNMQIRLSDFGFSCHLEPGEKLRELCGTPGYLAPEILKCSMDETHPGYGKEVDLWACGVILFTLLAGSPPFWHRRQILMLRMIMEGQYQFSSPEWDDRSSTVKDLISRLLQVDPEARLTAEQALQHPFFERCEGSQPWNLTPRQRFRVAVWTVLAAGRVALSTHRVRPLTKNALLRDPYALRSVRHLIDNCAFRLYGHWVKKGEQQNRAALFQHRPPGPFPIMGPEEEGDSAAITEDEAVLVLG", "experimental": "as §1"}, "PDGFRβ(h)": {"biological_target": "PDGFRβ(h) (Homo sapiens, UniProt P09619)", "experimental": "as §1"}, "Ab1(h)": {"biological_target": "Ab1(h) (Homo sapiens, UniProt P00519)", "experimental": "as §1"}, "CDK2/cyclinA(h)": {"biological_target": "CDK2/cyclinA(h) (Homo sapiens, UniProt P24941)", "experimental": "as §1"}, "AMPKα1(h)": {"biological_target": "AMPKα1(h) (Homo sapiens, UniProt Q13131)", "sequence (Q13131 whole entry)": "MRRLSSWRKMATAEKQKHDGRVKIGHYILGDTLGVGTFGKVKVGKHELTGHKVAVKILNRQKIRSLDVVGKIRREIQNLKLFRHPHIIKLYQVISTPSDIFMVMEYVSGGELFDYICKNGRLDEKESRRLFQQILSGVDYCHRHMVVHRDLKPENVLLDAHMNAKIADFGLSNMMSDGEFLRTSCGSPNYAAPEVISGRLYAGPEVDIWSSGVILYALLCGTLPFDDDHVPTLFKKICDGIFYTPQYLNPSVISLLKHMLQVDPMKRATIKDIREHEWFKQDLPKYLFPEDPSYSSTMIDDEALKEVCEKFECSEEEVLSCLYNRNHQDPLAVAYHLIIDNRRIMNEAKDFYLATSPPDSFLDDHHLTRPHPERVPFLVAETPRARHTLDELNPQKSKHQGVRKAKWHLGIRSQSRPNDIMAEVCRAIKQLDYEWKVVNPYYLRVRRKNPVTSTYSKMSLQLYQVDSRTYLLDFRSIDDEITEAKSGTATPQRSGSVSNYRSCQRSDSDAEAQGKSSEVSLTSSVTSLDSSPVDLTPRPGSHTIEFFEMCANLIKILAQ", "sequence (Q9Y478 whole entry partner)": "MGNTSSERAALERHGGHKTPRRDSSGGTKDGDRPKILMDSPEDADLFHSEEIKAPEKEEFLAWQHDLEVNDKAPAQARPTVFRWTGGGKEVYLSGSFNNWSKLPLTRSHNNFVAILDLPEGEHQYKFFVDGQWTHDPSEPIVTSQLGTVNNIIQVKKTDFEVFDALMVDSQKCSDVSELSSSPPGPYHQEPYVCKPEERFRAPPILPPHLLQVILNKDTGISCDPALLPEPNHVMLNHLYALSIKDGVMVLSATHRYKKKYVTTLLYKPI", "sequence (P54619 whole entry partner)": "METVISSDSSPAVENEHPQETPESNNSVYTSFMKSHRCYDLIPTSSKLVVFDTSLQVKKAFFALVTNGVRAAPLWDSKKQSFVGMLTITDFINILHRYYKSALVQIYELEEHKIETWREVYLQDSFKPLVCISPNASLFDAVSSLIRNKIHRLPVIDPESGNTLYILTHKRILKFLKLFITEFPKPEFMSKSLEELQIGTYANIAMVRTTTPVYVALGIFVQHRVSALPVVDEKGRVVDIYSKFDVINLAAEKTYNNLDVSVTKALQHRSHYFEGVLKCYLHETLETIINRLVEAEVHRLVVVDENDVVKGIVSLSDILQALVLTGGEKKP", "experimental": "as §1"}, "BRK(h)": {"biological_target": "BRK(h) (Homo sapiens, UniProt Q13882)", "experimental": "as §1"}, "MST2(h)": {"biological_target": "MST2(h) (Homo sapiens, UniProt Q13188)", "sequence (Q13188 whole entry)": "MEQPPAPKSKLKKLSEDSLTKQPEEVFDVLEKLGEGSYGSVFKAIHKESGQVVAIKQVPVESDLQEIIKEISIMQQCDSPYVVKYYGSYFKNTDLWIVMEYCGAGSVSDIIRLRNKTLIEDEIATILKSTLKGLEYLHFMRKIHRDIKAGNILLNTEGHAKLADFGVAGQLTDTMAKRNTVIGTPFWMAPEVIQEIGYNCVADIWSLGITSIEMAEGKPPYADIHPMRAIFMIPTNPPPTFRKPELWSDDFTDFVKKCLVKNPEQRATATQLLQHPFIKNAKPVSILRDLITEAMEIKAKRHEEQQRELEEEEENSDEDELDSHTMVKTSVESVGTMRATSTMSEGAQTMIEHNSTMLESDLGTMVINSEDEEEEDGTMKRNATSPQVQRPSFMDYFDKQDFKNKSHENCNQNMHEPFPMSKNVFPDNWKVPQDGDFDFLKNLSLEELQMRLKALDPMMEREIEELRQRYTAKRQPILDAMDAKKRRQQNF", "experimental": "as §1"}, "Pim-3(h)": {"biological_target": "Pim-3(h) (Homo sapiens, UniProt Q86V86)", "experimental": "as §1"}, "MAPKAP-K3(h)": {"biological_target": "T14, MAPKAP-K3(h) (Homo sapiens, UniProt Q16644)", "T14 construct": "purchased Millipore (KinaseProfiler service)", "experimental": "as §1"}},
  "data": [
    {"smiles": "Cc1cc2c(F)c(Oc3nc(Nc4cc(C5CC5)[nH]n4)cc(N4CCN(C)CC4)n3)cc(F)c2[nH]1", "note": "[NTW-3475]", "values": [
      {"measurement": "Activity %", "setting": "CLK3(h)", "value": 87, "unit": "%"},
      {"measurement": "Activity %", "setting": "EphA5(h)", "value": 122, "unit": "%"},
      {"measurement": "Activity %", "setting": "cKit(V560G)(h)", "value": 3, "unit": "%"},
      {"measurement": "Activity %", "setting": "Pim-1(h)", "value": 114, "unit": "%"},
      {"measurement": "Activity %", "setting": "PKCζ(h)", "value": 109, "unit": "%"},
      {"measurement": "Activity %", "setting": "Ret(h)", "value": "−1", "unit": "%"},
      {"measurement": "Activity %", "setting": "CK1γ1(h)", "value": 96, "unit": "%"},
      {"measurement": "Activity %", "setting": "CK1γ2(h)", "value": 134, "unit": "%"},
      {"measurement": "Activity %", "setting": "PDK1(h)", "value": 103, "unit": "%"},
      {"measurement": "Activity %", "setting": "Tie2(Y897S)(h)", "value": 3, "unit": "%"},
      {"measurement": "Activity %", "setting": "SGK2(h)", "value": 107, "unit": "%"},
      {"measurement": "Activity %", "setting": "cKit(D816H)(h)", "value": 9, "unit": "%"},
      {"measurement": "Activity %", "setting": "Ret(V804M)(h)", "value": 0, "unit": "%"},
      {"measurement": "Activity %", "setting": "TAO1(h)", "value": 65, "unit": "%"},
      {"measurement": "Activity %", "setting": "MSSK1(h)", "value": 110, "unit": "%"},
      {"measurement": "Activity %", "setting": "PKD2(h)", "value": 94, "unit": "%"},
      {"measurement": "Activity %", "setting": "Ros(h)", "value": 46, "unit": "%"},
      {"measurement": "Activity %", "setting": "ROCK-II(r)", "value": 42, "unit": "%"},
      {"measurement": "Activity %", "setting": "SRPK1(h)", "value": 96, "unit": "%"},
      {"measurement": "Activity %", "setting": "Ab1(M351T)(h)", "value": "−2", "unit": "%"},
      {"measurement": "Activity %", "setting": "DDR2(h)", "value": 9, "unit": "%"},
      {"measurement": "Activity %", "setting": "JAK2(h)", "value": 8, "unit": "%"},
      {"measurement": "Activity %", "setting": "CDK7/cyclinH/MAT1(h)", "value": 44, "unit": "%"},
      {"measurement": "Activity %", "setting": "PKG1α(h)", "value": 100, "unit": "%"},
      {"measurement": "Activity %", "setting": "SGK(h)", "value": 107, "unit": "%"},
      {"measurement": "Activity %", "setting": "MuSK(h)", "value": 48, "unit": "%"},
      {"measurement": "Activity %", "setting": "EGFR(L858R)(h)", "value": 72, "unit": "%"},
      {"measurement": "Activity %", "setting": "ARK5(h)", "value": 2, "unit": "%"},
      {"measurement": "Activity %", "setting": "EphA3(h)", "value": 22, "unit": "%"},
      {"measurement": "Activity %", "setting": "Lyn(m)", "value": 1, "unit": "%"},
      {"measurement": "Activity %", "setting": "PhKγ2(h)", "value": 77, "unit": "%"},
      {"measurement": "Activity %", "setting": "PDGFRβ(h)", "value": 89, "unit": "%"},
      {"measurement": "Activity %", "setting": "Ab1(h)", "value": "−9", "unit": "%"},
      {"measurement": "Activity %", "setting": "CDK2/cyclinA(h)", "value": 97, "unit": "%"},
      {"measurement": "Activity %", "setting": "AMPKα1(h)", "value": 17, "unit": "%"},
      {"measurement": "Activity %", "setting": "BRK(h)", "value": 33, "unit": "%"},
      {"measurement": "Activity %", "setting": "MST2(h)", "value": 79, "unit": "%"},
      {"measurement": "Activity %", "setting": "Pim-3(h)", "value": 99, "unit": "%"},
      {"measurement": "Activity %", "setting": "MAPKAP-K3(h)", "value": 103, "unit": "%"}
    ]}
  ]
}
